Among the data in ChEMBL document CHEMBL1201862, “PubChem BioAssay data set” (2004) are IC50, AC50 and EC50 values, retold here.

Activity calls are given as the source filed them.

As a reminder, the IC50 is the concentration at which inhibition is half-maximal. For orientation: AC50 means the concentration at which the activity in the assay is half-maximal. Usually EC50 stands for the concentration needed to bring the measured effect to its halfway point.

The target of one test is T1, Protein skinhead-1 (Caenorhabditis elegans, UniProt P34707).
T1 sequence (P34707 whole entry): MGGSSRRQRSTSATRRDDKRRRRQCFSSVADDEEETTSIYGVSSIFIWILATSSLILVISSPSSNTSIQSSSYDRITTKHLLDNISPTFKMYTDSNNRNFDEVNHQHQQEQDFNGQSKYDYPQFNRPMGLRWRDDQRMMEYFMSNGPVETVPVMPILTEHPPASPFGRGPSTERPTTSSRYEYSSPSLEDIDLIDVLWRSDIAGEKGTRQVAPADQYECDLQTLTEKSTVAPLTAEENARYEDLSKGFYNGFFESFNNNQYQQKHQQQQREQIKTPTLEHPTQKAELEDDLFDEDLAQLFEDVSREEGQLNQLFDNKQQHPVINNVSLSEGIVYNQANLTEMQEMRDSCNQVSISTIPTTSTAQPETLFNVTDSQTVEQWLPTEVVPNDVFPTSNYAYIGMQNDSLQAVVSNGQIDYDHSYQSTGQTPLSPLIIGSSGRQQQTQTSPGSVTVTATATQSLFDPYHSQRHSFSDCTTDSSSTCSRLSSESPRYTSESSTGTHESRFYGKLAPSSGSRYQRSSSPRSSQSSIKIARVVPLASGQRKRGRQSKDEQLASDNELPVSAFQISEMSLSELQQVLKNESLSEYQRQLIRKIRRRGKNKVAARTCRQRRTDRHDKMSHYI
Type of test: functional.

The target of another test is T2, Cytochrome P450 1A2 (Homo sapiens, UniProt P05177).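 Also: PubChem cytochrome P450 panel assay, CYP1A2 panel member.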
T2 sequence (P05177 whole entry): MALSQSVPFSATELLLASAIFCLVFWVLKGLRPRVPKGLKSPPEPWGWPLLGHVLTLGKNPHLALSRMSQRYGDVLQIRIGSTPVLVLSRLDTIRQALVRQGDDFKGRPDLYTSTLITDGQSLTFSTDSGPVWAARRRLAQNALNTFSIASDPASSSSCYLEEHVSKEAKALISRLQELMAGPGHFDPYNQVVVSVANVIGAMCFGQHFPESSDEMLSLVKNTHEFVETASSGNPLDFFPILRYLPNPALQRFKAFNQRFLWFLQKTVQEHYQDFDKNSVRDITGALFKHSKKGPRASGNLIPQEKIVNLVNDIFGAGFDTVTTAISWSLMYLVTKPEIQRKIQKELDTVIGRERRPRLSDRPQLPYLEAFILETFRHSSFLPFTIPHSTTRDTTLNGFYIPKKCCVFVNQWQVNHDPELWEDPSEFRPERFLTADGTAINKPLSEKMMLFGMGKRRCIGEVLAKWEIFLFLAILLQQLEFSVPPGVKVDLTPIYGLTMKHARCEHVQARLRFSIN

A further test deals with Cytochrome P450 3A4 (Homo sapiens, UniProt P08684).
Test [1] concerns Streptococcus sp. 'group A'. The experiment in a line: Streptococcus pyogenes SK(-)GAS viability under kanamycin – luminescence, BacTiterGlo, confirmation, counter-screen for streptokinase expression inhibitor project, dose response (AID 1900). Type of test: functional, organism-based.
Another test deals with T3, Streptokinase A (Streptococcus pyogenes serotype M1, UniProt P10520).
T3 sequence (P10520 whole entry): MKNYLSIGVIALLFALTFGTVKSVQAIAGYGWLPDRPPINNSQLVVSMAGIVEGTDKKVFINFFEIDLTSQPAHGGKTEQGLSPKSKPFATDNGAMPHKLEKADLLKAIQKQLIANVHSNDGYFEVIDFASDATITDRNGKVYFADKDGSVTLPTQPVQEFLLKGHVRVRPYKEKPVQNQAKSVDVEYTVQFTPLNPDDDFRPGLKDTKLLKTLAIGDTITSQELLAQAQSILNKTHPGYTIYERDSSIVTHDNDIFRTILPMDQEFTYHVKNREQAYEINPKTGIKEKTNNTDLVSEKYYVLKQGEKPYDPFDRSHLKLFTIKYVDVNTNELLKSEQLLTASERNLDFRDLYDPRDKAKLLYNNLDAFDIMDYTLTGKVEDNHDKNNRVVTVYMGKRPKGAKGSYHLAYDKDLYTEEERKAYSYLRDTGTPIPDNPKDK
The test is described as follows: viability-normalized secreted streptokinase activity reduction – plasminogen activation absorbance, OD405, dose response (AID 1914).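 Also: secreted streptokinase activity via plasminogen activation per viability signal from cell pellet.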 Type of test: functional, Streptococcus pyogenes M1 GAS.

For the next test, the system named is Streptococcus. The experiment in a line: GAS UMAA2166 growth inhibition – luminescence, BacTiterGlo, counter-screen for streptokinase expression inhibitor project, dose response (AID 1915).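 Also: potency for reduction of bacterial viability or growth.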 Type of test: functional, organism-based. A general note: A counterscreen serves to expose hits that act by an unwanted route or on another target.
Another test deals with Cytochrome P450 2D6 (Homo sapiens, UniProt P10635).
A further test deals with INS1. The test is described as follows: INS-1E survival protection against cytokine death – cell-based, luminescence, retest, dose response (AID 449756).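 Also: cell death triggered by IL-1 beta plus TNF-alpha plus IFN-gamma mixture; protective hits raise ATP signal compared with cytokine alone wells.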 Type of test: functional. The settings on record: Rattus norvegicus, INS1.
Test [2] is described as follows: luciferase reporter signal suppression in cells – H4 neuroglioma cells, luminescence, dose response (AID 1990). Type of test: functional, cell-based. On the technique in general: In a reporter assay the amount or activity of a reporter protein is the signal.
The nature of test [3]: Luminescence Cell-Based Dose Response HTS to Identify Inhibitors of 5'UTR Stem-Loop Driven Prion Protein mRNA Translation in H4 Neuroglioblastoma Cells. [Related pubchem assays: 1827 (Project Summary), 1813 (Primary HTS)]. Type of test: functional.
Test [4] can be described thus: alpha-synuclein stem-loop luciferase translation blockers – H4 neuroglioma cells, luminescence, confirmation (AID 1988). Type of test: functional, cell-based.
Test [5] is described as follows: Trypanosoma cruzi growth suppression in host cells – NIH3T3 host cells, beta-gal luminescence, confirmation (AID 2044).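 Also: intracellular parasites grown in NIH/3T3 mouse fibroblasts as host cells; luminescent beta-galactosidase reporter signal from transgenic T. cruzi replicating inside host cells; inhibitors lower the luminescence signal.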 Type of test: functional, cell-based.
Test [6] can be described thus: NIH3T3 cell viability loss – ATP luminescence, mouse fibroblasts, counter-screen, dose response (AID 2010).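 Also: cells exposed to compound for about 90 hours before reading.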 Type of test: functional, cell-based.

Cytochrome P450 3A4, sequence (P08684 whole entry): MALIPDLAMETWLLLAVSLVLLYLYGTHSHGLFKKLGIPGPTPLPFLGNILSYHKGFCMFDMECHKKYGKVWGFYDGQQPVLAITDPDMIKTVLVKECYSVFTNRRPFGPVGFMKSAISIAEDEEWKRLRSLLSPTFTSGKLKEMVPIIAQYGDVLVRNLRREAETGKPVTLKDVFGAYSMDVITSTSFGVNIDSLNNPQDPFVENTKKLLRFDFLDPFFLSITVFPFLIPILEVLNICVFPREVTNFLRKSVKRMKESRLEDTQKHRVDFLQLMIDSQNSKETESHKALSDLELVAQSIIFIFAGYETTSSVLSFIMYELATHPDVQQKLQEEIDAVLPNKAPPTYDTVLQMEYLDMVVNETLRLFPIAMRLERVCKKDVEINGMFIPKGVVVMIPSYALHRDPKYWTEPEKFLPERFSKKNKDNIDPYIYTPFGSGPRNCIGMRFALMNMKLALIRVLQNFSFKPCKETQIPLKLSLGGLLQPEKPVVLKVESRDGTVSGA
Cytochrome P450 2D6, sequence (P10635 whole entry): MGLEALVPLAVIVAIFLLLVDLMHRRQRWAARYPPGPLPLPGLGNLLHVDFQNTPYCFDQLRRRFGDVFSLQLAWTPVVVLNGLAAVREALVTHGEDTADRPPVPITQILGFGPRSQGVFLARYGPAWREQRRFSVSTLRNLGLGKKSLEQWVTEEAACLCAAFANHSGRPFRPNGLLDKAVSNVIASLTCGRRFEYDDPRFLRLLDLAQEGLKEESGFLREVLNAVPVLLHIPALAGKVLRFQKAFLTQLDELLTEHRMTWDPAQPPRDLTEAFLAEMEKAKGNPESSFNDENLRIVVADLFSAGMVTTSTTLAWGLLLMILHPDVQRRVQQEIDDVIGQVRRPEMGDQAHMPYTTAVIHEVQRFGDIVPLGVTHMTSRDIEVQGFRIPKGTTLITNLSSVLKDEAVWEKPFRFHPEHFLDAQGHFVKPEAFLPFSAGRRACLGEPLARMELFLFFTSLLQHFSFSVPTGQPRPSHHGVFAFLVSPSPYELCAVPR

Turning to `O=C(Nc1ccc(N2CCCCC2)cc1)c1ccc2ccccc2n1`, on Protein skinhead-1, the IC50 is > 100 µM (inactive). `Cc1c(C)c2c(c(C)c1O)CC[C@@](C)(C(=O)O)O2`: the AC50 on Cytochrome P450 1A2 was 20 µM (inconclusive); at Cytochrome P450 3A4, 12.6 µM (inconclusive). For `CN1CCN(c2ncc3ncc(=O)n(Cc4cccs4)c3n2)CC1`, the AC50 at Cytochrome P450 3A4 is 25.1 µM (inconclusive).

Turning to `COCCNC(=O)CC(c1ccccc1)c1ccccc1`, the IC50 at Protein skinhead-1 was > 100 µM (inactive). For `O=C(Nc1ccccc1)N1CC[C@@]2(CCCN(C(=O)Oc3ccccc3)C2)C1`, the AC50 on Cytochrome P450 1A2 is 15.8 µM (inconclusive); at Cytochrome P450 3A4 it was 25.1 µM (inconclusive). `O=C(Nc1ccc(OC(F)F)c(Cl)c1)c1cccc(OC(F)F)c1`: the IC50 at Protein skinhead-1 is 48.3 µM (active). In the case of `COc1ccc(N2C(=O)NC(NC(=O)c3ccncc3)(C(F)(F)F)C2=O)cc1` (stereo unspecified), the concentration at half-maximal activity (AC50) at Cytochrome P450 3A4 is 22.4 µM (inconclusive). As for `COC(=O)c1sc2ccccc2c1-n1cccc1C(=O)C(=O)Nc1ccc(Cl)cc1`, the figures for the AC50 at Cytochrome P450 1A2 and on Cytochrome P450 3A4 were 2.82 µM (inconclusive) and 14.1 µM (inconclusive), respectively. Turning to `COc1ccc(OC)c(-n2c(C)cc(/C=C3\C(=N)N4N=C(CC(=O)N5CCOCC5)SC4=NC3=O)c2C)c1`, the EC50 in [1] is 36.3 µM (active); at Streptokinase A it was > 150 µM (not active); in the test on Streptococcus, 87.9 µM (active).

`O=C(c1csnn1)N1CCC[C@@]2(CCN(c3ccccn3)C2)C1`: the AC50 on Cytochrome P450 2D6 was 12.6 µM (inconclusive); at Cytochrome P450 3A4 it was 6.31 µM (inconclusive). With `CCCOc1ccc(/C=C/c2c([N+](=O)[O-])c(=O)n(C)c(=O)n2C)cc1`, the EC50 is 26.9 µM (active) in [1], > 150 µM (not active) at Streptokinase A and > 150 µM (not active) in the test with Streptococcus.

As for `COc1ccc(CN(C)S(=O)(=O)c2nnc(NC(=O)c3ccccc3Br)s2)cc1`, the EC50 in [1] was 6.23 µM (active); on Streptokinase A it was 9.36 µM (active); in the test on Streptococcus, 98.9 µM (active). With `c1ccc(-c2csc(N3CCN(c4ccccn4)CC3)n2)cc1`, the IC50 on Protein skinhead-1 was 26.5 µM (active). The same measure, in the same setting: with `CCOC(=O)c1ccc(Nc2nnc(C(C)(C)C)c(O)n2)cc1` the figure was > 100 µM (inactive). Take `Cc1nc2cnc(N(C)C)nc2n(Cc2cccs2)c1=O`: the AC50 on Cytochrome P450 2D6 is 12.6 µM (inconclusive); at Cytochrome P450 3A4, 3.16 µM (inconclusive). As to `Clc1ccccc1-c1nnc(-c2ccccc2Cl)o1`, on Protein skinhead-1, the IC50 is 53.8 µM (inactive). In the case of `FC(F)(F)c1cc(Nc2ccccc2)nc(-c2ccccn2)n1`, the EC50 in [1] is 9.52 µM (active); on Streptokinase A, > 150 µM (not active); in the test on Streptococcus it was 88.6 µM (active). Regarding `Clc1ccc2nc(N3CCCCC3)sc2c1`, at Protein skinhead-1, the half-inhibitory concentration (IC50) was 29.2 µM (active). With `CCOc1ccc(-n2c(=O)[nH]cc(C(=O)Nc3ccc(OC)c(OC)c3)c2=O)cc1`, the AC50 in the test on INS1 is > 260 µM (inactive). `CC1CCN(C(=O)c2ccc(COc3ccccc3Cl)o2)CC1`: the values for the AC50 on Cytochrome P450 2D6 and on Cytochrome P450 3A4 were 28.2 µM (inconclusive) and 31.6 µM (inconclusive), respectively.

`COc1ccc2nc(Nc3nc4cc5c(cc4s3)OCO5)sc2c1`: the values for the EC50 (in [1]; on Streptokinase A; with Streptococcus) were 1.17 µM (active), > 150 µM (not active) and > 150 µM (not active), respectively. Turning to `COc1ccccc1NC(=O)Cn1cc(C(=O)c2ccco2)c2ccccc21`, in the test on INS1, the AC50 is 9.44 µM (active). On to `CN1CCN(c2ncc3nc(-c4cc(F)cc(F)c4)c(=O)n(Cc4cccs4)c3n2)CC1`, for which the AC50 at Cytochrome P450 1A2 was 6.31 µM (inconclusive); at Cytochrome P450 3A4, 25.1 µM (inconclusive). On the same counts, the results for `CCCC[C@@H]1C[C@H]1C(NC(=O)c1ccccc1)c1ccccc1C(F)(F)F` (stereo partly specified) are 10 µM (inconclusive) and 3.16 µM (inconclusive). Turning to `CCC(C)Sc1ccc(-c2nc3ccc(C)cn3c2NCc2ccccc2)cc1OC` (stereo unspecified), in the test on INS1, the AC50 is 6.7 µM (active). For `O=C(NC1CCN(Cc2ccccc2)CC1)c1cc(Br)c(Br)[nH]1`, the EC50 was > 120 µM (not active) in test [2]; > 120 µM (not active) in test [3]; > 120 µM (not active) in test [4]; 0.539 µM (active) in test [5]; > 60 µM (not active) in test [6]. With `O=C(NC(=S)N1CCN(c2nc(-c3ccccc3)cs2)CC1)c1cccnc1`, the EC50 was 5.55 µM (active) in test [1], > 150 µM (not active) on Streptokinase A and > 150 µM (not active) in the test on Streptococcus.

Take `Clc1cccc(CSc2ncn(-c3ccccc3)n2)c1`: the IC50 at Protein skinhead-1 was 24.7 µM (active). As for `COc1ccc(C2CC(=O)c3cnc(N4CCN(Cc5ccccc5)CC4)nc3C2)cc1` (stereo unspecified), the EC50 in test [1] was 14.9 µM (active); at Streptokinase A, > 150 µM (not active); with Streptococcus it was 21.6 µM (active). For the compound `O=C(Nc1ccc2c(c1)Cc1ccccc1-2)c1ccco1`, the IC50 at Protein skinhead-1 was > 100 µM (inactive).

Take `O=C1CSC(c2ccccc2F)N1` (stereo unspecified): in the test on INS1, the AC50 was > 260 µM (inactive).

With `O=C(COC(=O)C12CC3CC(CC(O)(C3)C1)C2)Nc1cccc(Br)c1`, the IC50 on Protein skinhead-1 is > 100 µM (inactive). On to `O=C(Nc1c(C(=O)N2CCCCC2)cnn1-c1ccccc1)c1ccco1`, for which the AC50 at Cytochrome P450 3A4 is 17.8 µM (inconclusive). As for `CN(C)S(=O)(=O)c1cccc(NC(=O)COC(=O)c2ccc(Br)o2)c1`, the AC50 on Cytochrome P450 3A4 was 20 µM (inconclusive). Turning to `OCc1cccc(-c2csc(C(O)(c3ccccc3)C(F)(F)F)n2)c1` (stereo unspecified), the IC50 on Protein skinhead-1 is > 100 µM (inactive). Regarding `Cc1ccccc1NC(=O)Cc1nc(COC(=O)c2cccc(O)c2)cs1`, at Protein skinhead-1, the IC50 is > 100 µM (inactive). Take `Cc1cc(C)n(C(=O)/C(C#N)=N/Nc2cc(Cl)cc(Cl)c2)n1`: the results for the EC50 (in [1]; on Streptokinase A; with Streptococcus) were 2.34 µM (active), > 150 µM (not active) and 12.3 µM (active), respectively. The matching figures for `Cc1ccc(C23CC4CC(CC(C(=O)N5CCN(C)CC5)(C4)C2)C3)cc1`: > 150 µM (not active), > 150 µM (not active) and > 150 µM (not active). As for `O=C(N/N=C/c1c[nH]c2ccccc12)c1ccn(Cc2ccc(Cl)cc2Cl)n1`, the AC50 on Cytochrome P450 2D6 is 7.08 µM (inconclusive); at Cytochrome P450 3A4 it was 3.55 µM (inconclusive). Consider `O=C(Cn1cc(C(F)(F)F)ccc1=O)N/N=C/c1cccc(Cl)c1Cl`, for which the EC50 in [2], in test [3] and in test [4] was > 120 µM (not active) throughout.

Consider `CC(C)=CCc1c(-c2ccc(O)cc2O)oc2c3c(cc(O)c2c1=O)OC(C)(C)C=C3` [MORUSIN], for which the EC50 was 2.71 µM (active) in test [1], 1.15 µM (active) at Streptokinase A and 2.96 µM (active) in the test on Streptococcus.
